Results reported in US9040529B2 (Vichem Chemie Kutató Kft., priority 2009, dated 2015).
pIC50: −log10 of the molar value.

Target: T1, human CDK9/CyclinT kinase complex (Homo sapiens, UniProt P50750)
T1 construct: purchased Proqinase 0371-0345-1
Assay: In vitro CDK9/CyclinT assay (IMAP fluorescence polarization kinase assay)
Assay type: biochemical
Details: for pIC50: 5 nM CDK9/CyclinT, 400 nM TAMRA-Rbtide, 12 μM ATP, 1 hour at room temperature, read-out: CDK9 inhibitory range
Procedure: In Vitro CDK9/CyclinT Assay
The activity of the compounds described in the present invention can be determined by the following kinase assay, which measures the phosphorylation of a fluorescently-labeled peptide by human CDK9/CyclinT kinase complex by fluorescent polarization using a commercially available IMAP Screening Express Assay Kit (Molecular devices).
CDK9 kinase assays were performed in low protein binding 384-well plates (Corning 3676). Test compounds were diluted in 100% DMSO to 5 mM stock concentration, then further dilutions were made in H2O or 100% DMSO to desirable concentrations.
Each reaction consisted of 5 nM enzyme: CDK9/CyclinT (Proqinase cat#0371-0345-1), 400 nM TAMRA-Rbtide (synthetic 15-mer peptide derived from human retinoblastoma tumor suppressor protein labelled with TAMRA dye, Genecust Europe), 12 μM ATP (=Kmapp, Sigma-Aldrich) and kinase buffer: 20 mM MOPS pH 7 (Sigma-Aldrich), 1 mM DTT (Sigma-Aldrich), 10 mM MgCl2 (Sigma-Aldrich), 0.01% Tween 20 (Sigma-Aldrich).
For each reaction, 4 or 6 μl containing TAMRA-Rbtide, ATP and kianse buffer were combined with 2 μl diluted compound in H2O or 0.028 μl compound in 100% DMSO. The kinase reaction was started by the addition of 2 μl diluted enzyme. The reaction was allowed to run for 1 hours at room temperature. The reaction was stopped by adding 15 μl IMAP beads (1:400 beads in progressive (100% buffer A) 1× buffer). After an additional 1 hours, fluorescent polarization (Ex: 550-10 nm, Em: 590-10 nm, Dich: 561 nm) was measured using an Analyst GT (Molecular devices).

T1 sequence (P50750 whole entry): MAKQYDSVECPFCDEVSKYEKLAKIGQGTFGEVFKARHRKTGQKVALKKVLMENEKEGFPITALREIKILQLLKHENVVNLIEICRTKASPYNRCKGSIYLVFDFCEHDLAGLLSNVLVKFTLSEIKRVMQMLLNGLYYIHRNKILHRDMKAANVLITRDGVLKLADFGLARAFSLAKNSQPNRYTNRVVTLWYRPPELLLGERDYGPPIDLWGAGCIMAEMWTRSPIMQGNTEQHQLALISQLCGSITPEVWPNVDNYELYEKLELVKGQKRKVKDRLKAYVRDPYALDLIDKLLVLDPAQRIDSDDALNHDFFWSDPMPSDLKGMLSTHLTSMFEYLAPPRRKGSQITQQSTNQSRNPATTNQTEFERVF
T1 sequence (O60563 whole entry partner): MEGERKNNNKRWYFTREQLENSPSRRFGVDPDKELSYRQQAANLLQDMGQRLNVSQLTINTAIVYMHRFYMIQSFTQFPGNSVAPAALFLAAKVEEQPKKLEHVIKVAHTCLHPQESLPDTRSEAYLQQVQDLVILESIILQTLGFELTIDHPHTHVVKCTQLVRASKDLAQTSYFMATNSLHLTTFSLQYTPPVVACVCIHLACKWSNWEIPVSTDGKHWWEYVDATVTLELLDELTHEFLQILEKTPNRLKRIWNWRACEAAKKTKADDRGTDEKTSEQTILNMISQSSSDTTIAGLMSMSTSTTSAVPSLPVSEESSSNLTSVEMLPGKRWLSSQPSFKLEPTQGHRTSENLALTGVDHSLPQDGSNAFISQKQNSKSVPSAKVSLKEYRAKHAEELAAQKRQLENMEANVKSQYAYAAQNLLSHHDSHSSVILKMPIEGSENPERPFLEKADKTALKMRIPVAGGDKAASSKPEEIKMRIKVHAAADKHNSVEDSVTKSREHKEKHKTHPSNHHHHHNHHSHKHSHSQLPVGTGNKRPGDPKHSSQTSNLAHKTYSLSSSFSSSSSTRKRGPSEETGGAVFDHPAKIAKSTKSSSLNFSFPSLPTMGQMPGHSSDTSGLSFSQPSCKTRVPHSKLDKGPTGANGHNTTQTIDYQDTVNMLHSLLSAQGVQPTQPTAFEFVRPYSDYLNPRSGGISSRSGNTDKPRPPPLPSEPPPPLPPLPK

Structure (SMILES)	pIC50	CDK9 inhibitory effect
COc1ccccc1-c1cc(Nc2cccc(CNc3nc4ccccc4[nH]3)c2)ncn1 [Example 60, (1H-Benzoimidazol-2-yl)-{3-[6-(2-methoxy-phenyl)-pyrimidin-4-ylamino]-benzyl}-amine]	> 6.00	–
CC(C)Oc1ccccc1-c1cc(Nc2cccc(Cn3cnc4ccccc43)c2)ncn1 [Example 80, (3-Benzoimidazol-1-ylmethyl-phenyl)-[6-(2-isopropoxy-phenyl)-pyrimidin-4-yl]-amine]	> 7.00	–
Clc1cc(Nc2cccc(Cn3c(CN4CCOCC4)nc4ccccc43)c2)ncn1 [Example 92, (6-Chloro-pyrimidin-4-yl)-[3-(2-morpholin-4-ylmethyl-benzoimidazol-1-ylmethyl)-phenyl]amine]	< 5.00	–
Oc1cccc(-c2cc(Nc3cccc(Cn4cnc5ccccc54)c3)ncn2)c1 [Example 83, 3-[6-(3-Benzoimidazol-1-ylmethyl-phenylamino)-pyrimidin-4-yl]-phenol]	> 5.00	–
COc1ccccc1-c1cc(Nc2cccc(CNS(=O)(=O)c3cccs3)c2)ncn1 [Example 73, Thiophene-2-sulfonic acid 3-[6-(2-methoxy-phenyl)-pyrimidin-4-ylamino]-benzylamide]	> 6.00	–
COc1cccc(F)c1-c1cc(Nc2cccc(Cn3cnc4ccccc43)c2)ncn1 [Example 79, (3-Benzoimidazol-1-ylmethyl-phenyl)-[6-(2-fluoro-6-methoxy-phenyl)-pyrimidin-4-yl]-amine]	> 7.00	–
COc1cc(F)ccc1-c1cc(Nc2cccc(Cn3c(CN4CCOCC4)nc4ccccc43)c2)ncn1 [Example 94, [6-(4-Fluoro-2-methoxy-phenyl)-pyrimidin-4-yl]-[3-(2-morpholin-4-ylmethyl-benzoimidazol-1-ylmethyl)-phenyl]-amine]	> 5.00	–
COc1ccccc1-c1cc(Nc2cccc(CNS(=O)(=O)Cc3ccccc3)c2)ncn1 [Example 74, N-{3-[6-(2-Methoxy-phenyl)-pyrimidin-4-ylamino]-benzyl}-C-phenyl-methanesulfonamide]	> 6.00	–
COc1ccccc1-c1cc(Nc2cccc(Cn3cnc4ccccc43)c2)ncn1 [Example 64, (3-Benzoimidazol-1-ylmethyl-phenyl)-[6-(2-methoxy-phenyl)-pyrimidin-4-yl]-amine]	> 7.00	nanomolar or low nanomolar range
CC(C)Oc1cc(F)ccc1-c1cc(Nc2cccc(Cn3cnc4ccccc43)c2)ncn1 [Example 81, (3-Benzoimidazol-1-ylmethyl-phenyl)-[6-(4-fluoro-2-isopropoxy-phenyl)-pyrimidin-4-yl]-amine]	> 7.00	–
COc1ccccc1-c1cc(Nc2cccc(Cn3ccc4ccccc43)c2)ncn1 [Example 91, (3-Indol-1-ylmethyl-phenyl)-[6-(2-methoxy-phenyl)-pyrimidin-4-yl]-amine]	> 5.00	–
COc1ccccc1-c1cc(Nc2cccc(CNC(=O)c3ccc(F)cc3)c2)ncn1 [Example 84, 4-Fluoro-N-{3-[6-(2-methoxy-phenyl)-pyrimidin-4-ylamino]-benzyl}-benzamide]	> 6.00	–

Now from value to compound:

pIC50	CDK9 inhibitory effect	Structure (SMILES)
> 6.00	–	COc1ccccc1-c1cc(Nc2ccc(CNS(C)(=O)=O)cc2)ncn1 [Example 34, N-{4-[6-(2-Methoxy-phenyl)-pyrimidin-4-ylamino]-benzyl}-methanesulfonamide]
< 5.00	–	CS(=O)(=O)NCc1cccc(Nc2cc(-c3ccccc3COc3ccc(OC(F)(F)F)cc3)ncn2)c1 [Example 30, N-(3-{6-[2-(4-Trifluoromethoxy-phenoxymethyl)-phenyl]-pyrimidin-4-ylamino}-benzyl)-methanesulfonamide]
> 6.00	–	CCCOc1ccccc1-c1cc(Nc2cccc(CNS(C)(=O)=O)c2)ncn1 [Example 31, N-{3-[6-(2-Propoxy-phenyl)-pyrimidin-4-ylamino]-benzyl}-methanesulfonamide]
> 7.00	nanomolar or low nanomolar range	CCCS(=O)(=O)NCc1cccc(Nc2cc(-c3ccccc3OC)ncn2)c1 [Example 71, Propane-1-sulfonic acid 3-[6-(2-methoxy-phenyl)-pyrimidin-4-ylamino]-benzylamide]
> 6.00	–	CS(=O)(=O)NCc1cccc(Nc2cc(-c3cn[nH]c3)ncn2)c1 [Example 32, N-{3-[6-(1H-Pyrazol-4-yl)-pyrimidin-4-ylamino]-benzyl}-methanesulfonamide]
> 7.00	–	CS(=O)(=O)NCc1cccc(Nc2cc(-c3ccc(O)cc3)ncn2)c1 [Example 75, N-{3-[6-(4-Hydroxy-phenyl)-pyrimidin-4-ylamino]-benzyl}-methanesulfonamide]
> 6.00	–	CSc1ccccc1-c1cc(Nc2cccc(CNS(C)(=O)=O)c2)ncn1 [Example 28, N-{3-[6-(2-Methylsulfanyl-phenyl)-pyrimidin-4-ylamino]-benzyl}-methanesulfonamide]
> 5.00	–	CS(=O)(=O)NCc1cccc(Nc2cc(-c3ccccc3)ncn2)c1 [Example 21, N-[3-(6-Phenyl-pyrimidin-4-ylamino)-benzyl]-methanesulfonamide]
> 6.00	–	COc1ccc(-c2cc(Nc3ccc(CNS(C)(=O)=O)cc3)ncn2)cc1 [Example 57, N-{4-[6-(4-Methoxy-phenyl)-pyrimidin-4-ylamino]-benzyl}-methanesulfonamide]
< 5.00	–	CS(=O)(=O)NCc1ccc(Nc2cc(-c3ccc(F)cc3F)ncn2)cc1 [Example 42, N-{4-[6-(2,4-Difluoro-phenyl)-pyrimidin-4-ylamino]-benzyl}-methanesulfonamide]
> 7.00	nanomolar or low nanomolar range	COc1cc(F)ccc1-c1cc(Nc2cccc(CNS(C)(=O)=O)c2)ncn1 [Example 7, N-{3-[6-(4-Fluoro-2-methoxy-phenyl)-pyrimidin-4-ylamino]-benzyl}-methanesulfonamide]
< 5.00	–	CS(=O)(=O)NCc1ccc(Nc2cc(-c3cn[nH]c3)ncn2)cc1 [Example 58, N-{4-[6-(1H-Pyrazol-4-yl)-pyrimidin-4-ylamino]-benzyl}-methanesulfonamide]
> 7.00	nanomolar or low nanomolar range	CCOc1ccccc1-c1cc(Nc2ccc(CNS(C)(=O)=O)cc2)ncn1 [Example 37, N-{4-[6-(2-Ethoxy-phenyl)-pyrimidin-4-ylamino]-benzyl}-methanesulfonamide]
> 6.00	–	CS(=O)(=O)NCc1ccc(Nc2cc(-c3ccccc3OCc3cccc(F)c3)ncn2)cc1 [Example 49, N-(4-{6-[2-(3-Fluoro-benzyloxy)-phenyl]-pyrimidin-4-ylamino}-benzyl)-methanesulfonamide]
> 6.00	–	COc1ccc(F)cc1-c1cc(Nc2cccc(CNS(C)(=O)=O)c2)ncn1 [Example 9, N-{3-[6-(5-Fluoro-2-methoxy-phenyl)-pyrimidin-4-ylamino]-benzyl}-methanesulfonamide]
> 5.00	–	CS(=O)(=O)NCc1ccc(Nc2cc(-c3cccnc3)ncn2)cc1 [Example 52, N-[4-(6-Pyridin-3-yl-pyrimidin-4-ylamino)-benzyl]-methanesulfonamide]
> 6.00	–	CS(=O)(=O)NCc1cccc(Nc2cc(-c3ccccc3OCc3ccccc3)ncn2)c1 [Example 2, N-{3-[6-(2-Benzyloxy-phenyl)-pyrimidin-4-ylamino]-benzyl}-methanesulfonamide]
< 5.00	–	CS(=O)(=O)NCc1ccc(Nc2cc(-c3ccccc3C(F)(F)F)ncn2)cc1 [Example 43, N-{4-[6-(2-Trifluoromethyl-phenyl)-pyrimidin-4-ylamino]-benzyl}-methanesulfonamide]
